Assay results as given in patent EP4635958A1, “PYRIMIDINE-CONTAINING POLYCYCLIC DERIVATIVE INHIBITOR, AND PREPARATION METHOD THEREFOR AND USE THEREOF” (Shanghai Hansoh Biomedical Co., Ltd., priority 2022, dated 2024).
Structures can show the parent of a compound that is named as a salt. Where two headings read alike, the source gives them in different places.

Columns and labels:
[1] = Plasma stability test, dog plasma; assay type: in vitro ADME; details: for half-life: read-out: t1/2 (converted);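 for all read-outs here: parent compound left in dog plasma quantified by LC-MS with positive electrospray ionization, selected reaction monitoring and an internal standard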
Description: Liquid chromatography-mass spectrometer, centrifuge, vortexer, pipette, continuous dispenser, 96-well plate, 50% methanol aqueous solution, acetonitrile solution containing internal standard, blank matrix (plasma of rat, dog, or human), Propantheline (propantheline bromide), Mevinolin (lovastatin), and test compound.
After whole blood was collected from animals or humans, it was placed in a test tube containing an anticoagulant and centrifuged at 3500 rpm for 10 min to collect the upper pale yellow plasma.
The compound was weighed and the stock solution was formulated with DMSO and the working solution was formulated with 100 mM phosphate buffer.
• Instrument: API4000 liquid chromatography-mass spectrometer, AB Company, USA; • the ion source was electrospray ionization source (ESI); • drying gas (N2) temperature was 500°C; • electrospray voltage was 5500V; • the detection method was positive ion detection; • the scanning method was selected reaction monitoring (MRM); • the scanning time was 0.1s.

GP2D = assay: Inhibition of proliferation of KRAS G12D mutant tumor cell line GP2D (CellTiter-Glo); details: read-out: GP2D IC50
AsPC-1 = assay: Inhibition of proliferation of KRAS G12D mutant tumor cell line AsPC-1 (CellTiter-Glo); assay type: cell-based
Procedure, shortened: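 KRAS G12D-mutant AsPC-1 cells plated overnight at 37 °C/5% CO2, then exposed to serial compound dilutions (DMSO/medium, vehicle control) for about 72 h. Viability read by CellTiter-Glo luminescence; inhibition rate vs concentration fitted by nonlinear regression for IC50.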

[2] = tested on: human pancreatic cancer cell line (HPAC); assay: Antitumor efficacy in mouse transplanted tumor model of human pancreatic cancer cell line (HPAC); assay type: in vivo, mice (BALB/c nude); details: HPAC xenograft, 100mpk, PO*BID; for Tumor volume (mm^3, Mean ± SD) Day 0: Day 0 (baseline)
Description: 8-10 week old female conventional immunodeficient mice (BALB/c nude) with a body weight of 18 g-22 g were used as experimental animals, and a transplanted tumor model of human pancreatic cancer cell line (HPAC) was used to conduct in vivo efficacy experiments to test the anti-tumor results of the example compounds after gavage administration.
The example compounds of the present invention, made in house.
A certain amount of the example compound was weighed, and an appropriate amount of 10% vehicle (Solutol HS15) was added. The mixture was stirred on a magnetic stirrer for 0.5 h to formulate a homogeneous suspension at the desired concentration.
Human pancreatic cancer cell line (HPAC) was derived from COBIOER BIOSCIENCES CO., LTD, cultured on DMEM/F12 medium (Gibco, 11330-032) supplemented with 10% fetal calf serum (Gibco, 10091-148), 1×Insulin (51500-056, Gibco) and 10 ng/ml of EGF (PHG0311, Gibco) and observed under a microscope (Thermo Fisher, 311). The cells were routinely passaged when the cells reached 80%-90% confluence in the culture flask. The passaged cells were cultured in a 37°C, 5% CO2 incubator (Thermo Fisher, 311).
Under aseptic conditions, human pancreatic cancer cells (HPAC) in the logarithmic growth phase were harvested using 0.25% trypsin-EDTA (Gibco, 25200-056), washed and resuspended with phosphate buffer. The cell suspension was mixed with Matrigel (Corning, 356234) at a 1 : 1 ratio (v/v) and implanted subcutaneously into the right anterior dorsal region of immunodeficient mice (BALB/c nude). Each mouse was inoculated with 3*10^6 cells in a volume of 100 microliters (µL). After inoculation, when the tumor volume reached 100-200 mm^3, the mice would be evenly randomized into 5 groups based on the tumor size, with 5 mice per group, for in vivo efficacy experiments. The negative control group was the vehicle group.
Mode of administration: The example compounds were administered orally.
Twice a week, the long and short diameters of the tumor were measured using a vernier caliper, and the tumor volume (mm^3) was calculated using the formula: V = 0.5*D*d*d, where D and d are the long and short diameters of the tumor, respectively. The anti-tumor efficacy was determined by dividing the average increase in tumor volume of compound-treated animals by the average increase in tumor volume of untreated animals. The calculation formula for tumor inhibition rate was: When there is no tumor regression, TGI(%) = 100-[(Vt-V0) administration group/(Vt-V0) vehicle control group]*100%. When tumor regression occurs, TGI(%) = [1-(Vt-V0) administration group/V0 vehicle control group]*100%. All animals were euthanized after the experiment.

[3] = Homo sapiens, ASPC1, about 72 h

Molecule | half-life ([1]; Dog plasma, 37°C) [h] | IC50 (GP2D; Homo sapiens, GP2d, 72 h) [nM] | IC50 (AsPC-1; [3]) [nM] | Tumor volume (mm^3, Mean ± SD) Day 0 ([2]; Table 11) [mm^3] | TGI(%) Day 21 ([2]; Table 11) [%] | Tumor volume (mm^3, Mean ± SD) Day 21 ([2]; Table 11) [mm^3] | ΔT/ΔC(%) Day 21 ([2]; Table 11) [%] | Remaining rate (%) 0 min ([1]; Dog plasma, 37°C, 0 min) [%] | Remaining rate (%) 15 min ([1]; Dog plasma, 37°C, 15 min) [%] | Remaining rate (%) 30 min ([1]; Dog plasma, 37°C, 30 min) [%] | Remaining rate (%) 60 min ([1]; Dog plasma, 37°C, 60 min) [%] | Remaining rate (%) 120 min ([1]; Dog plasma, 37°C, 120 min) [%] | other results
[2H]C([2H])([2H])[C@@H]1Oc2nc(-c3cc(O)cc4ccc(F)c(C#C)c34)c(F)c3nc(OCC4(CN5CCC(=C(F)F)CC5)CC4)nc(c23)N2C[C@H]3CC[C@H](N3)[C@@H]12 [Example 161, 4-((5S,5aS,6S,9R)-12-((1-((4-(difluoromethylene)piperidin-1-yl)methyl)cyclopropyl)methoxy)-1-fluoro-5-(methyl-d3)-5a,6,7,8,9,10-hexahydro-5H-4-oxa-3,10a,11,13,14-pentaaza-6,9-methylnaphtho[1,8-ab]hept-2-yl)-5-ethynyl-6-fluoronaphthalen-2-ol] | 31.4 | 0.24 | 4.4 | 209 | 137.45 | 131 | 11.47 | – | – | – | – | – | Remaining rate (%) 0 min ([1]; dog, plasma, 0 h): 100.00%; Remaining rate (%) 15 min ([1]; dog, plasma, 0.25 h): 91.74%; Remaining rate (%) 30 min ([1]; dog, plasma, 0.5 h): 92.09%; Remaining rate (%) 60 min ([1]; dog, plasma, 1 h): 90.97%; Remaining rate (%) 120 min ([1]; dog, plasma, 2 h): 88.28%
[2H]C([2H])([2H])[C@@H]1Oc2nc(-c3cc(N)cc(Cl)c3C(F)(F)F)c(F)c3nc(OCC4(CN5CCC(=NOC)CC5)CC4)nc(c23)N2C[C@H]3CC[C@H](N3)[C@@H]12 [Example 339] | – | 0.1 | 3.5 | – | – | – | – | – | – | – | – | – | Tumor volume (mm^3, Mean ± SD) Day 0 ([2]; Table 12): 469 mm^3; TGI(%) Day 14 ([2]; Table 12): 160.47%; ΔT/ΔC(%) Day 14 ([2]; Table 12): 19.36%; Tumor volume (mm^3, Mean ± SD) Day 21 ([2]; Table 12): 185 mm^3
C#Cc1c(F)ccc2cc(O)cc(-c3nc4c5c(nc(OCC6(CN7CCC(=C(F)F)CC7)CC6)nc5c3F)N3C[C@H]5CC[C@H](N5)[C@H]3[C@H](C)O4)c12 [Example 19-1, 4-((5S,5aS,6S,9R)-12-((1-((4-(difluoromethylene)piperidin-1-yl)methyl)cyclopropyl)methoxy)-1-fluoro-5-methyl-5a,6,7,8,9,10-hexahydro-5H-4-oxa-3,10a,11,13,14-pentaaza-6,9-methylnaphtho[1,8-ab]hept-2-yl)-5-ethynyl-6-fluoronaphthalene-2-ol] | 75.5 | 0.16 | 3.1 | – | – | – | – | 100.00 | 95.89 | 101.96 | 101.84 | 94.59 | –
4-((5S,5aS,6R,9S)-12-((1-((((R)-4-(difluoromethylene)-2-methylpiperidin-1-yl)methyl)cyclopropyl)methoxy)-1-fluoro-5-(methyl-d3)-5a,6,7,8,9,10-hexahydro-5H-4-oxa-3,10a,11,13,14-pentaaza-6,9-methylnaphtho[1,8-ab]hept-2-yl)-5-ethynyl-6-fluoronaphthalen-2-ol [Example 162] | – | – | – | 210 | 126.15 | 155 | 13.54 | – | – | – | – | – | IC50 (GP2D; proliferation, about 72 h, CellTiter-Glo): 0.2 nM; IC50 (AsPC-1; about 72 h): 4 nM
C#Cc1c(F)ccc2cc(O)cc(-c3nc4c5c(nc(OCC6(CN7CCC(=CF)CC7)CC6)nc5c3F)N3C[C@H]5CC[C@H](N5)[C@H]3[C@H](C)O4)c12 [Example 129, 5-ethynyl-6-fluoro-4-((5S,5aS,6S,9R)-1-fluoro-12-((1-((4-(fluoromethylene)piperidin-1-yl)methyl)cyclopropyl)methoxy)-5-methyl-5a,6,7,8,9,10-hexahydro-5H-4-oxa-3,10a,11,13,14-pentaaza-6,9-methylnaphtho[1,8-ab]hept-2-yl)naphthalen-2-ol] | – | 0.17 | 3.6 | 209 | 97.63 | 231 | 20.27 | 100.00 | 100.48 | 100.22 | 97.42 | 110.22 | t1/2 ([1]; Dog plasma, 37°C): ∞
C#Cc1c(F)ccc2cc(O)cc(-c3nc4c5c(nc(OCC6(CN7CCC(=NOC)CC7)CC6)nc5c3F)N3C[C@H]5CC[C@H](N5)[C@H]3[C@H](C)O4)c12 [Example 35-1, 1-((1-((((5S,5aS,6S,9R)-2-(8-ethynyl-7-fluoro-3-hydroxynaphthalen-1-yl)-1-fluoro-5-methyl-5a,6,7,8,9,10-hexahydro-5H-4-oxa-3,10a,11,13,14-pentaaza-6,9-methylenenaphtho[1,8-ab]heptalen-12-yl)oxo)methyl)cyclopropyl)methyl)piperidin-4-one O-methyloxime formate] | – | 0.21 | 3.8 | – | – | – | – | – | – | – | – | – | Tumor volume (mm^3, Mean ± SD) Day 0 ([2]; Table 12): 469 mm^3; TGI(%) Day 14 ([2]; Table 12): 76.39%; ΔT/ΔC(%) Day 14 ([2]; Table 12): 61.00%; Tumor volume (mm^3, Mean ± SD) Day 21 ([2]; Table 12): 585 mm^3
CON=C1CCN(CC2(COc3nc4c5c(nc(-c6cc(N)cc(Cl)c6C(F)(F)F)c(F)c5n3)O[C@@H](C)[C@@H]3[C@@H]5CC[C@H](CN43)N5)CC2)CC1 [Example 337, 1-((1-((((5S,5aS,6S,9R)-2-(5-amino-3-chloro-2-(trifluoromethyl)phenyl)-1-fluoro-5-methyl-5a,6,7,8,9,10-hexahydro-5H-4-oxa-3,10a,11,13,14-pentaaza-6,9-methylnaphtho[1,8-ab]heptene-12-yl)oxy)methyl)cyclopropyl)methyl)piperidin-4-one O-methyloxime] | – | 0.11 | 1.2 | – | – | – | – | – | – | – | – | – | –
C#Cc1c(F)ccc2cc(O)cc(-c3nc4c5c(nc(OCC6(CN7CCC(=C(F)F)CC7)CC6)nc5c3F)N3C[C@H]5CC[C@H](N5)[C@H]3CO4)c12 [Example 1-1, 4-((5aS,6S,9R)-12-((1-((4-(difluoromethylene)piperidin-1-yl)methyl)cyclopropyl)methoxy)-1-fluoro-5a,6,7,8,9,10-hexahydro-5H-4-oxa-3,10a,11,13,14-pentaaza-6,9-methylenenaphtho[1,8-ab]heptalene-2-yl)-5-ethynyl-6-fluoronaphthalen-2-ol] | 48.9 | 1.2 | – | – | – | – | – | 100.00 | 100.25 | 105.57 | 104.40 | 93.99 | –
[2H]C([2H])(Oc1nc2c3c(nc(-c4cc(O)cc5ccc(F)c(C#C)c45)c(F)c3n1)O[C@@H](C)[C@@H]1[C@@H]3CC[C@H](CN21)N3)C1(C([2H])([2H])N2CCC(=CF)CC2)CC1 [Example 291, 5-ethynyl-6-fluoro-4-((5S,5aS,6S,9R)-1-fluoro-12-((1-((4-(fluoromethylene)piperidin-1-yl)methyl-d2)cyclopropyl)methoxy-d2)-5-methyl-5a,6,7,8,9,10-hexahydro-5H-4-oxa-3,10a,11,13,14-pentaaza-6,9-methylnaphtho[1,8-ab]hept-2-yl)naphthalen-2-ol] | 94.6 | 0.15 | 4.6 | 210 | 127.51 | 153 | 13.29 | 100.00 | 104.39 | 94.89 | 103.00 | 99.65 | –
[2H]C([2H])([2H])[C@@H]1Oc2nc(-c3cc(O)cc4ccc(F)c(C#C)c34)c(F)c3nc(OCC4(CN5CCC(=CF)CC5)CC4)nc(c23)N2C[C@H]3CC[C@H](N3)[C@@H]12 [Example 164] | 51.9 | 0.32 | 6.6 | – | – | – | – | 100.00 | 92.40 | 94.94 | 96.81 | 91.42 | –
